The text below walks through data of patent US9376425B2, “Heterocyclic compounds as MDM2 inhibitors for the treatment of cancer” (AMGEN INC., priority 2011, dated 2016).

Usually IC50 stands for the concentration that inhibits the measured activity by half. Low values mean greater potency in that assay, high ones weaker potency in that assay.

The target in this test is T1, human MDM2 (GST-hMDM2 1-188), interaction with biotinylated-p53 (1-83) (Homo sapiens, UniProt Q00987).
T1 construct: Amino acid residues 1-188 of human MDM2 were expressed; made in house; host or cells: Escherichia coli
T1 sequence (Q00987 1-188): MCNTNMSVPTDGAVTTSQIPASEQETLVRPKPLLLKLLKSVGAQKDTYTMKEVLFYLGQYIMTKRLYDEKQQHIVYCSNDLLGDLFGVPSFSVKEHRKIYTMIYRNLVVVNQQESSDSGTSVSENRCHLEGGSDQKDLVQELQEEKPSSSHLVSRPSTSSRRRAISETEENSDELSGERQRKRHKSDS
Nature of the test: improved HTRF assay (HTRF2 assay), inhibition of HDM2-p53 interaction. It is filed as binding. The conditions noted are these: 0.2 nM GST-hMDM2, 0.5 nM biotinylated-p53, 100 mM KF. The protocol:
Residues 1-83 of human p53 were expressed as an amino-terminal AviTag™-TrxA-6xHis fusion protein (biotinylated p53) in E. coli. Each protein was purified from cell paste by affinity chromatography.
Specifically, 10 uL of GST-hMDM2 was incubated with 10 ul of diluted compound (various concentrations, serially diluted) in 10% DMSO for 20 minutes at room temperature. 20 uL of biotinylated-p53 was added to the GST-hMDM2+ compound mixture, and then incubated at room temperature for 60 min. 10 uL of detection buffer consisting of SA-XLent, anti-GST cryptate antibody and KF was added to GST-hMDM2, biotinylated-p53 and compound reaction and left at room temperature to reach equilibrium for >4 hrs. The final concentration of DMSO in the reaction was 2%. Time-resolved fluorescence readings were measured on a microplate multilabel reader. Percentage of inhibition was calculated relative to nutlin-3.
The molecule `CC[C@@H](CS(=O)(=O)c1ccccc1Cl)N1C(=O)[C@@H](CC(=O)O)O[C@H](c2cccc(Cl)c2)[C@H]1c1ccc(Cl)cc1` (single isomer, unassigned) [Example 138, 2-((2R,5R,6R)-6-(3-chlorophenyl)-5-(4-chlorophenyl)-4-((S)-1-((2-chlorophenyl)sulfonyl)butan-2-yl)-3-oxomorpholin-2-yl)acetic acid or 2-((2S,5R,6R)-6-(3-chlorophenyl)-5-(4-chlorophenyl)-4-((S)-1-((2-chlorophenyl)sulfonyl)butan-2-yl)-3-oxomorpholin-2-yl)acetic acid] had an IC50 of 29 nM.

On to `CC[C@@H](CS(=O)(=O)C1CCC1)N1C(=O)[C@@H](CC(=O)O)O[C@H](c2cccc(Cl)c2)[C@H]1c1ccc(Cl)cc1` (single isomer, unassigned) [Example 141, 2-((2R,5R,6R)-6-(3-chlorophenyl)-5-(4-chlorophenyl)-4-((S)-1-(cyclobutylsulfonyl)butan-2-yl)-3-oxomorpholin-2-yl)acetic acid or 2-((2S,5R,6R)-6-(3-chlorophenyl)-5-(4-chlorophenyl)-4-((S)-1-(cyclobutylsulfonyl)butan-2-yl)-3-oxomorpholin-2-yl)acetic acid], for which the IC50 turned out to be 1 nM.

As to `CC[C@@H](CS(=O)(=O)C1CCC1)N1C(=O)[C@@H](CC(=O)O)O[C@H](c2cccc(Cl)c2)[C@H]1c1ccc(Cl)cc1` (single isomer, unassigned) [Example 142, 2-((2R,5R,6R)-6-(3-chlorophenyl)-5-(4-chlorophenyl)-4-((S)-1-(cyclobutylsulfonyl)butan-2-yl)-3-oxomorpholin-2-yl)acetic acid or 2-((2S,5R,6R)-6-(3-chlorophenyl)-5-(4-chlorophenyl)-4-((S)-1-(cyclobutylsulfonyl)butan-2-yl)-3-oxomorpholin-2-yl)acetic acid], the concentration for half-maximal inhibition (IC50) came out at 7 nM.

On to `CC[C@@H](CS(=O)(=O)C(C)C)N1C(=O)[C@@H](CC(=O)O)O[C@H](c2cc(Cl)cc(Cl)c2)[C@H]1c1ccc(Cl)cc1` (single isomer, unassigned) [Example 145, 2-((2R,5R,6R)-5-(4-chlorophenyl)-6-(3,5-dichlorophenyl)-4-((S)-1-(isopropylsulfonyl)butan-2-yl)-3-oxomorpholin-2-yl)acetic acid or 2-((2S,5R,6R)-5-(4-chlorophenyl)-6-(3,5-dichlorophenyl)-4-((S)-1-(isopropylsulfonyl)butan-2-yl)-3-oxomorpholin-2-yl)acetic acid], for which the IC50 amounted to 8 nM.

Consider `CC[C@@H](CS(=O)(=O)C(C)C)N1C(=O)[C@@H](CC(=O)O)O[C@H](c2cc(Cl)cc(Cl)c2)[C@H]1c1ccc(Cl)cc1` (single isomer, unassigned) [Example 146, 2-((2R,5R,6R)-5-(4-chlorophenyl)-6-(3,5-dichlorophenyl)-4-((S)-1-(isopropylsulfonyl)butan-2-yl)-3-oxomorpholin-2-yl)acetic acid or 2-((2S,5R,6R)-5-(4-chlorophenyl)-6-(3,5-dichlorophenyl)-4-((S)-1-(isopropylsulfonyl)butan-2-yl)-3-oxomorpholin-2-yl)acetic acid], for which 15 nM corresponded to half-maximal inhibition (IC50).

In turn, `CC[C@@H](CS(=O)(=O)C(C)(C)C)N1C(=O)[C@@H](CC(=O)O)O[C@H](c2cc(Cl)cc(Cl)c2)[C@H]1c1ccc(Cl)cc1` (single isomer, unassigned) [Example 147, 2-((2R,5R,6R)-5-(4-chlorophenyl)-6-(3,5-dichlorophenyl)-4-((S)-1-(tert-butylsulfonyl)butan-2-yl)-3-oxomorpholin-2-yl)acetic acid or 2-((2S,5R,6R)-5-(4-chlorophenyl)-6-(3,5-dichlorophenyl)-4-((S)-1-(tert-butylsulfonyl)butan-2-yl)-3-oxomorpholin-2-yl)acetic acid] gave a 50% inhibitory concentration (IC50) of 6 nM.

`CC[C@@H](CS(=O)(=O)C(C)(C)C)N1C(=O)[C@@H](CC(=O)O)O[C@H](c2cc(Cl)cc(Cl)c2)[C@H]1c1ccc(Cl)cc1` (single isomer, unassigned) [Example 148, 2-((2R,5R,6R)-5-(4-chlorophenyl)-6-(3,5-dichlorophenyl)-4-((S)-1-(tert-butylsulfonyl)butan-2-yl)-3-oxomorpholin-2-yl)acetic acid or 2-((2S,5R,6R)-5-(4-chlorophenyl)-6-(3,5-dichlorophenyl)-4-((S)-1-(tert-butylsulfonyl)butan-2-yl)-3-oxomorpholin-2-yl)acetic acid] returned an IC50 of 7 nM.

`CC(C)S(=O)(=O)C[C@H](C1CC1)N1C(=O)[C@@H](CC(=O)O)O[C@H](c2cccc(Cl)c2)[C@H]1c1ccc(Cl)cc1` (single isomer, unassigned) [Example 156, 2-((2R,5R,6R)-6-(3-chlorophenyl)-5-(4-chlorophenyl)-4-((S)-1-cyclopropyl-2-(isopropylsulfonyl)ethyl)-3-oxomorpholin-2-yl)acetic acid or 2-((2S,5R,6R)-6-(3-chlorophenyl)-5-(4-chlorophenyl)-4-((S)-1-cyclopropyl-2-(isopropylsulfonyl)ethyl)-3-oxomorpholin-2-yl)acetic acid]: the IC50 came out at 1 nM.

In turn, `CC(C)S(=O)(=O)C[C@H](C1CC1)N1C(=O)[C@@H](CC(=O)O)O[C@H](c2cccc(Cl)c2)[C@H]1c1ccc(Cl)cc1` (single isomer, unassigned) [Example 157, 2-((2R,5R,6R)-6-(3-chlorophenyl)-5-(4-chlorophenyl)-4-((S)-1-cyclopropyl-2-(isopropylsulfonyl)ethyl)-3-oxomorpholin-2-yl)acetic acid or 2-((2S,5R,6R)-6-(3-chlorophenyl)-5-(4-chlorophenyl)-4-((S)-1-cyclopropyl-2-(isopropylsulfonyl)ethyl)-3-oxomorpholin-2-yl)acetic acid] returned an IC50 of 1 nM.

As for `O=C(O)C[C@H]1O[C@H](c2cccc(Cl)c2)[C@@H](c2ccc(Cl)cc2)N([C@H](CN(c2ccccc2F)S(=O)(=O)C2CC2)C2CC2)C1=O` (single isomer, unassigned) [Example 158, 2-((2R,5R,6R)-6-(3-chlorophenyl)-5-(4-chlorophenyl)-4-((S)-1-cyclopropyl-2-(N-(2-fluorophenyl)cyclopropanesulfonamido)ethyl)-3-oxomorpholin-2-yl)acetic acid or 2-((2S,5R,6R)-6-(3-chlorophenyl)-5-(4-chlorophenyl)-4-((S)-1-cyclopropyl-2-(N-(2-fluorophenyl)cyclopropanesulfonamido)ethyl)-3-oxomorpholin-2-yl)acetic acid], the concentration for half-maximal inhibition (IC50) was less than 1 nM.

As to `O=C(O)C[C@H]1O[C@H](c2cccc(Cl)c2)[C@@H](c2ccc(Cl)cc2)N([C@H](CN(c2ccccc2F)S(=O)(=O)C2CC2)C2CC2)C1=O` (single isomer, unassigned) [Example 159, 2-((2R,5R,6R)-6-(3-chlorophenyl)-5-(4-chlorophenyl)-4-((S)-1-cyclopropyl-2-(N-(2-fluorophenyl)cyclopropanesulfonamido)ethyl)-3-oxomorpholin-2-yl)acetic acid or 2-((2S,5R,6R)-6-(3-chlorophenyl)-5-(4-chlorophenyl)-4-((S)-1-cyclopropyl-2-(N-(2-fluorophenyl)cyclopropanesulfonamido)ethyl)-3-oxomorpholin-2-yl)acetic acid], the 50% inhibitory concentration (IC50) was less than 1 nM.

For `CC[C@@H](CS(=O)(=O)C(C)(C)C)N1C(=O)[C@@H](CC(=O)O)O[C@H](c2cccc(Cl)c2)[C@@]1(C)c1ccc(Cl)cc1` (single isomer, unassigned) [Example 162, 2-((2R,5R,6R)-4-((S)-1-(tert-butylsulfonyl)butan-2-yl)-6-(3-chlorophenyl)-5-(4-chlorophenyl)-5-methyl-3-oxomorpholin-2-yl)acetic acid or 2-((2S,5R,6R)-4-((S)-1-(tert-butylsulfonyl)butan-2-yl)-6-(3-chlorophenyl)-5-(4-chlorophenyl)-5-methyl-3-oxomorpholin-2-yl)acetic acid], the half-maximal inhibitory concentration (IC50) was 6250 nM.

`CC[C@@H](CS(=O)(=O)C(C)(C)C)N1C(=O)[C@@H](CC(=O)O)O[C@H](c2cccc(Cl)c2)[C@@]1(C)c1ccc(Cl)cc1` (single isomer, unassigned) [Example 163, 2-((2R,5R,6R)-4-((S)-1-(tert-butylsulfonyl)butan-2-yl)-6-(3-chlorophenyl)-5-(4-chlorophenyl)-5-methyl-3-oxomorpholin-2-yl)acetic acid or 2-((2S,5R,6R)-4-((S)-1-(tert-butylsulfonyl)butan-2-yl)-6-(3-chlorophenyl)-5-(4-chlorophenyl)-5-methyl-3-oxomorpholin-2-yl)acetic acid]: the 50% inhibitory concentration (IC50) was found to be 6620 nM.

`CC[C@@H](CN(c1ccccc1F)S(=O)(=O)C1(C)CC1)N1C(=O)[C@@H](CC(=O)O)O[C@H](c2cccc(Cl)c2)[C@H]1c1ccc(Cl)cc1` (single isomer, unassigned) [Example 174, 2-((2R,5R,6R)-6-(3-chlorophenyl)-5-(4-chlorophenyl)-4-((S)-1-(N-(2-fluorophenyl)-1-methylcyclopropanesulfonamido)butan-2-yl)-3-oxomorpholin-2-yl)acetic acid or 2-((2S,5R,6R)-6-(3-chlorophenyl)-5-(4-chlorophenyl)-4-((S)-1-(N-(2-fluorophenyl)-1-methylcyclopropanesulfonamido)butan-2-yl)-3-oxomorpholin-2-yl)acetic acid] registered an IC50 of less than 1 nM.
